Assay results as given in patent publication US5260335A, “Pharmaceutical preparations for the treatment of inflammatory diseases” (Plantamed Arzneimittel GmbH, priority 1991, dated 1993).

Legend:
[1] = system: PAF-induced bronchial obstruction; experiment: Inhibition of PAF-induced bronchial reaction (successive inhalation of histamine, PAF and histamine); format: in vivo, guinea pigs
Method: All the experiments were conducted according to a randomized evaluation record:
Groups of 10 to 14 animals were divided into two sub-groups and either treated with the material to be studied or with control solutions.
1 hour, 12 hours, 4 or 7 days after the pretreatment, the animals were exposed to various inhalation stimuli. […] Ovalbumin, PAF, histamine and acetylcholine were administered as an aerosol atomized by ultrasound.
Spontaneously breathing animals were placed in a dual-chamber body plethysmograph in which the two chambers were separated around the head of the animals by a rubber collar filled with water. Changes in volume in the two chambers were measured by means of pressure transfer systems. The degree of bronchial obstruction was determined by means of the parameter, "compressed air".
The action of the plant extracts or of the compounds on the PAF-induced reaction was studied by means of the successive inhalation of histamine, PAF and histamine:
One group of animals was divided into two sub-groups and both sub-groups inhaled histamine in a concentration causing a moderate bronchial obstruction. One hour later, one group was given the substances to be studied, the other group was given the solvent alone. Both groups were subjected 12 hours later to a stimulus by means of the successive inhalation of PAF and histamine with 1 μg PAF at first and, 60 minutes later, the same dose of histamine being given as before.

[2] = system: bronchial obstruction after allergen inhalation; experiment: Inhibition of bronchial obstruction after allergen (ovalbumin) inhalation in sensitized guinea pigs; format: in vivo; conditions: for activity in preventing bronchial obstruction after inhalation of an allergen (in words): methyl gallate, gallic acid and quercetin compared
Method: Male white guinea pigs were sensitized by means of intraperitoneal and intramuscular injection of ovalbumin according to the well-known methods. […] All the experiments were conducted according to a randomized evaluation record: Groups of 10 to 14 animals were divided into two sub-groups and either treated with the material to be studied or with control solutions. […] Ovalbumin, PAF, histamine and acetylcholine were administered as an aerosol atomized by ultrasound. Spontaneously breathing animals were placed in a dual-chamber body plethysmograph in which the two chambers were separated around the head of the animals by a rubber collar filled with water. Changes in volume in the two chambers were measured by means of pressure transfer systems. The degree of bronchial obstruction was determined by means of the parameter, "compressed air".

Row | SMILES | % inhibition of bronchial obstruction after PAF inhalation ([1]; 5 mg/kg) [%] | inhibition of PAF-induced bronchial reaction ([1]; oral dose of 5 mg/kg) | % inhibition of bronchial obstruction after allergen inhalation, 1st stimulus ([2]; 5 mg/kg) [%] | % inhibition of bronchial obstruction after allergen inhalation, 2nd stimulus ([2]; 5 mg/kg) [%] | inhibition of bronchial reactions to an allergen stimulus ([2]; oral dose of 5 mg/kg) [%] | % inhibition of bronchial obstruction after allergen inhalation, 1st stimulus ([2]; 45 mg/kg) [%] | % inhibition of bronchial obstruction after allergen inhalation, 2nd stimulus ([2]; 45 mg/kg) [%] | activity in preventing bronchial obstruction after inhalation of an allergen (in words) [2] | % inhibition of bronchial obstruction after PAF inhalation ([1]; 45 mg/kg) [%] | activity in PAF-induced bronchial obstruction (in words) ([1]; compared with the mixture of quercetin, gallic acid and protocatechinic acid)
1 | O=C(OC1CC(OC(=O)c2cc(O)c(O)c(O)c2)(C(=O)O)CC(OC(=O)c2cc(O)c(O)c(O)c2)C1OC(=O)c1cc(O)c(O)c(O)c1)c1cc(O)c(O)c(O)c1 (single isomer, unassigned) [tetragalloylquinic acid] | 60 ± 43 | about 60% | 86 ± 24 | 57 ± 79 | 86±24 |  |  |  |  | 
2 | O=C(O)c1cc(O)c(O)c(O)c1 [Gallic acid, gallic acid] |  |  |  |  |  | 37 ± 35 | 40 ± 31 | about the same activity |  | 
3 | COC(=O)c1cc(O)c(O)c(O)c1 [Methyl gallate, methyl gallate] |  |  |  |  |  | 43 ± 34 | 41 ± 24 | about the same activity | 65 ± 24 | somewhat more activity than the mixture
4 | O=c1c(O)c(-c2ccc(O)c(O)c2)oc2cc(O)cc(O)c12 [Quercetin, quercetin, reference compound] |  |  |  |  |  | 53 ± 23 | 34 ± 33 | about the same activity |  | 
